Consider 36 compounds from US20240174649A1, “CULLIN-RING E3 UBIQUITIN LIGASE 4 INHIBITOR COMPOUNDS AND METHODS OF THEIR USE” (ICAHN SCHOOL OF MEDICINE AT MOUNT SINAI, priority 2021, published 2024).

Where only a bound is given, the exact number is not on record here.

For experiment [1], the target named is E3 (CUL1) (Homo sapiens (Human), UniProt Q13616). Description: E3 (CUL1) inhibition (Table 1). The experiment is classed as biochemical. How it is done: The reaction mixture (15 μl) was assembled onto a 384-well microtiter plate. […] ATP (0.66 mM) was then added to the mix followed by a brief centrifugation to settle down the mixture. The resulting plate was incubated at 30° C. in the Synergy-H1 reader and the fluorescence signal was monitored. Ubiquitination was quantified based on the ratio of acceptor:donor fluorescence (excitation 515 nm; donor emission 570 nm, acceptor emission 670 nm).
E3 (CUL1), sequence (Q13616 whole entry): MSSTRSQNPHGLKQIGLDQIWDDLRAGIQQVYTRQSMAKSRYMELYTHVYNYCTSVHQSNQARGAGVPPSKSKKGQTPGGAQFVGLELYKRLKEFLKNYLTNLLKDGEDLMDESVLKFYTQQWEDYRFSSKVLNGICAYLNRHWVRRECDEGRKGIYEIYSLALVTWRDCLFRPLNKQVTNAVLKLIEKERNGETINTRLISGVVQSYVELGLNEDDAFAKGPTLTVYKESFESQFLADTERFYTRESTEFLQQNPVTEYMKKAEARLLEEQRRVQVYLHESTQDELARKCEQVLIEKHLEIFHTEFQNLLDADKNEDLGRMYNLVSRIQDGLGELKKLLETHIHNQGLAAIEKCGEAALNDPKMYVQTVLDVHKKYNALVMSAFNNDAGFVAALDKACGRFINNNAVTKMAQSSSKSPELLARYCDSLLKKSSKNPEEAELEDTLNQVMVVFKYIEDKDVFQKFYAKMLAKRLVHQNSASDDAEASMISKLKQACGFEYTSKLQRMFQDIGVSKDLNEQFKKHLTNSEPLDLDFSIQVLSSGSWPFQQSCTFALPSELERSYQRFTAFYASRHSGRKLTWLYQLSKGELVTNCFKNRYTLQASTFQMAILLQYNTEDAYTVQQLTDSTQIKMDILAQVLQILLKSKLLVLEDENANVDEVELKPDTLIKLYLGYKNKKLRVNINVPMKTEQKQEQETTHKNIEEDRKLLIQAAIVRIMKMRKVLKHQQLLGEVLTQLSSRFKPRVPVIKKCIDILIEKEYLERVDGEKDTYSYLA
E3 (CUL1), sequence (P62877 whole entry partner): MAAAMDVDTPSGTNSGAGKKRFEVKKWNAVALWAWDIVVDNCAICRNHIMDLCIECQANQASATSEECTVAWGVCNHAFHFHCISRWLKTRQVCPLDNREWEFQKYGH

Experiment [2] concerns the target E3 (CUL4) (Homo sapiens (Human), UniProt Q13619). The experiment in a line: E3 (CUL4) inhibition (Table 1). The experiment is classed as biochemical. The method, then: The reaction was incubated for 5 min at 37° C. […] The reaction was incubated for 5 min at room temperature. In the second step (chase), the completed Cdc34b-Ub thiol ester reaction mixture was combined with one third of the completed mono-ubiquitination mixture. The final volume was adjusted to 10 μl with a mix that contained 50 mM Tris-HCl (pH 7.4), 0.5 mM DTT, 0.1 mg/ml of BSA, 5 mM MgCl2, and 2 mM ATP. Compounds were added where indicated. The chase reaction was incubated for 10 min at 37° C. The reaction products were separated by 4-20% SDS-polyacrylamide gel electrophoresis. The reaction scheme was identical to the one described above for FIGS. 12A-B. […] The reaction products, separated by SDS-PAGE, were visualized and analyzed by phospho-imaging using Typhoon 9500 scanner.

For experiment [3], the system named is cancer cells. The experiment in a line: Apoptosis, Annexin V flow cytometry. The experiment is classed as cell-based. The settings on record: Table 1. The method, then: Cells (5×10^4) were seeded 24 hours before compound treatment. Compound was added to the culture media and cells were cultured with the compound for 48 hours. The treated cells were then transferred into 5 ml flow cytometry tubes and the well was washed once with PBS to collect any remaining cells. The cells were then pelleted at 500×g for 5 min with a Beckman CS-6KR centrifuge at 4° C. After removal of supernatant, the cells pellet was washed with Annexin V binding buffer (10 mM Hepes-NaOH, pH 7.4, 150 mM NaCl, 5 mM KCl, 1 mM MgCl2, and 1.8 mM CaCl2). Cells were pelleted once again and incubated in the dark with Annexin V-FITC (2 μg/ml) in binding buffer for 5 min then analyzed using LSRFortessa flow cytometer (BD).

E3 (CUL4), sequence (Q13619 whole entry): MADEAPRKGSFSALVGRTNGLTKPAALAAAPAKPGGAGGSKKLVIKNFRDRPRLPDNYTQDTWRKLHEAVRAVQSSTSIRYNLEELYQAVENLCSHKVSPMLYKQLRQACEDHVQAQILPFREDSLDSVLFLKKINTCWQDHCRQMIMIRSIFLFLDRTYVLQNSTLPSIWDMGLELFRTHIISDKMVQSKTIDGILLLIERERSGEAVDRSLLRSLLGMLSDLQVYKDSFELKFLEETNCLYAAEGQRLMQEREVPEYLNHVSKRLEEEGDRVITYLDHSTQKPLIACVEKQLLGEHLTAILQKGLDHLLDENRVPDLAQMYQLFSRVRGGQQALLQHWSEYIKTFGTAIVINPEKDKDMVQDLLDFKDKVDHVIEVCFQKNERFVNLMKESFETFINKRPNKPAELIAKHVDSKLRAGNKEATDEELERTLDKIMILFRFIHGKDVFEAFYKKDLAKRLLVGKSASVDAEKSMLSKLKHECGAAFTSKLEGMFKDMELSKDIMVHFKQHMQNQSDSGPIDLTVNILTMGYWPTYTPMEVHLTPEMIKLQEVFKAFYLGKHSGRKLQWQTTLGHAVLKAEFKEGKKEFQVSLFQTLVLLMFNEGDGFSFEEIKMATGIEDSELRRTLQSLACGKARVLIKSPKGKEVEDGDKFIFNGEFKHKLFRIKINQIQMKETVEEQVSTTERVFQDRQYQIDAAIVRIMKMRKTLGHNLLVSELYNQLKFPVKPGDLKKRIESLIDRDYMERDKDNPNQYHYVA
E3 (CUL4), sequence (P62877 whole entry partner): as the sequence (P62877 whole entry partner) above

For the compound `CC(=O)Oc1ccc2c(=O)cc(C(F)(F)F)oc2c1OC(C)=O` [KH-3-12], the EC50 in experiment [1] is 32 µM; in experiment [2], greater than 75 µM.

Turning to `O=c1ccoc2c(O)c(O)ccc12` [KH-3-49], the EC50 in experiment [1] was 11 µM; in experiment [2], greater than 75 µM.

`O=c1cc(C(F)(F)F)oc2c(O)c(O)ccc12` [KH-3-50]: the EC50 in experiment [1] was 4.9 µM. Besides, the “E3 (CUL4) Inhibition EC50” value in experiment [2] is reported as “Inactive”.

Take `O=c1c(-c2cnn(-c3ccc(C(F)(F)F)cc3)c2)c(C(F)(F)F)oc2c(O)c(O)ccc12` [KH-3-150]: the EC50 is 9.3 µM in experiment [1], greater than 14 µM in experiment [2] and 6 µM in experiment [3].

As to `O=c1c(-c2cnn(-c3cccc(Cl)c3)c2)c(C(F)(F)F)oc2c(O)c(O)ccc12` [KH-3-151], the results for the EC50 in experiment [1], in experiment [2] and in experiment [3] were 13 µM, roughly 14 µM and 5 µM, respectively.

`N#Cc1ccc(-n2cc(-c3c(C(F)(F)F)oc4c(O)c(O)ccc4c3=O)cn2)cc1` [KH-3-152]: the EC50 was 9 µM in experiment [1], greater than 14 µM in experiment [2] and 30 µM in experiment [3].

As for `O=c1c(-c2ccnn2Cc2ccccc2)c(C(F)(F)F)oc2c(O)c(O)ccc12` [KH-3-160A], the values for the EC50 in experiment [1], in experiment [2] and in experiment [3] were 3.4 µM, roughly 20 µM and 21 µM, respectively.

Consider `O=c1c(-c2cnn(-c3ccc(F)cc3)c2)c(C(F)(F)F)oc2c(O)c(O)ccc12` [KH-3-174], for which the results for the EC50 in experiment [1] and in experiment [2] were 8 µM and greater than 14 µM, respectively.

Consider `O=c1c(-c2cnn(-c3cccc(F)c3)c2)c(C(F)(F)F)oc2c(O)c(O)ccc12` [KH-4-41], for which the results for the EC50 in experiment [1], in experiment [2] and in experiment [3] were 5 µM, roughly 14 µM and 9 µM, respectively.

For the compound `NC(=O)c1ccccc1-n1cc(-c2c(C(F)(F)F)oc3c(O)c(O)ccc3c2=O)cn1` [KH-4-44], the concentration giving a half-maximal response (EC50) in experiment [1] came out at 10 µM. The “E3 (CUL4) Inhibition EC50” value in experiment [2] is given as “Inactive”.

On to `O=c1c(-c2cnn(-c3cccc(C(F)(F)F)c3)c2)c(C(F)(F)F)oc2c(O)c(O)ccc12` [KH-4-65], for which the EC50 is 8 µM in experiment [1] and greater than 14 µM in experiment [2].

Regarding `N#Cc1cccc(-n2cc(-c3c(C(F)(F)F)oc4c(O)c(O)ccc4c3=O)cn2)c1` [KH-4-66], the EC50 is 9 µM in experiment [1] and greater than 14 µM in experiment [2].

With `O=c1c(-c2cnn(-c3cccnc3)c2)c(C(F)(F)F)oc2c(O)c(O)ccc12` [KH-4-67], in experiment [1], the “E3 (CUL1) Inhibition EC50” value is on record as “Inactive”. Besides, the “E3 (CUL4) Inhibition EC50” value in experiment [2] was “Inactive”.

In turn, `Nc1cccc(-n2cc(-c3c(C(F)(F)F)oc4c(O)c(O)ccc4c3=O)cn2)c1` [KH-4-78] displayed an EC50 in experiment [2] greater than 14 µM. The “Apoptosis EC50” value in experiment [3] is given as “Inactive”.

With `Cc1cccc(-n2cc(-c3c(C(F)(F)F)oc4c(O)c(O)ccc4c3=O)cn2)c1` [KH-4-79], the results for the EC50 in experiment [2] and in experiment [3] were roughly 14 µM and 19 µM, respectively.

Take `O=c1c(-c2cnn(-c3ccccc3Cl)c2)c(C(F)(F)F)oc2c(O)c(O)ccc12` [KH-4-88]: the EC50 in experiment [2] was greater than 14 µM; in experiment [3], 26 µM.

For the compound `O=c1c(-c2cnn(-c3ccc(Cl)cc3Cl)c2)c(C(F)(F)F)oc2c(O)c(O)ccc12` [KH-4-98], the concentration giving a half-maximal response (EC50) in experiment [2] is roughly 10 µM; in experiment [3] it was 9 µM.

As to `O=c1c(-c2cnn(-c3ccc(Cl)c(Cl)c3)c2)c(C(F)(F)F)oc2c(O)c(O)ccc12` [KH-4-99], the results for the EC50 in experiment [2] and in experiment [3] were roughly 10 µM and 9 µM, respectively.

As to `O=c1c(-c2cnn(-c3cc(Cl)cc(Cl)c3)c2)c(C(F)(F)F)oc2c(O)c(O)ccc12` [KH-4-116], the EC50 in experiment [2] is roughly 10 µM; in experiment [3], 6 µM.

As to `O=c1c(-c2cnn(-c3ccccc3)c2)c(C(F)(F)F)oc2c(OS(=O)(=O)C(F)(F)F)c(O)ccc12` [KH-4-136], in experiment [2], the “E3 (CUL4) Inhibition EC50” value is given as “Inactive”. Besides, the “Apoptosis EC50” value in experiment [3] is recorded as “Inactive”.

`O=c1c(-c2cnn(-c3ccccc3)n2)c(C(F)(F)F)oc2c(O)c(O)ccc12` [KH-5-09] registered an EC50 in experiment [2] greater than 14 µM.

As to `COc1ccc2c(=O)c(-c3cnn(Cc4ccc(Cl)cc4)c3)c(C(F)(F)F)oc2c1OC` [MSSM-RJD-MM-001, 3-(1-(4-chlorobenzyl)-1H-pyrazol-4-yl)-7,8-dimethoxy-2-(trifluoromethyl)-4H-chromen-4-one], the EC50 in experiment [1] is greater than 100 µM; in experiment [2], greater than 10 µM; in experiment [3], greater than 20 µM.

In the case of `CCCCn1cc(-c2c(C(F)(F)F)oc3c(OC)c(OC)ccc3c2=O)cn1` [MSSM-RJD-MM-002, 3-(1-butyl-1H-pyrazol-4-yl)-7,8-dimethoxy-2-(trifluoromethyl)-4H-chromen-4-one], the EC50 is 96 µM in experiment [1], greater than 10 µM in experiment [2] and greater than 20 µM in experiment [3].

Take `COc1ccc2c(=O)c(-c3cnn(C(C)C)c3)c(C(F)(F)F)oc2c1OC` [MSSM-RJD-MM-003, 3-(1-isopropyl-1H-pyrazol-4-yl)-7,8-dimethoxy-2-(trifluoromethyl)-4H-chromen-4-one]: the EC50 is greater than 100 µM in experiment [1], greater than 10 µM in experiment [2] and greater than 20 µM in experiment [3].

For `CCCn1cc(-c2c(C(F)(F)F)oc3c(OC)c(OC)ccc3c2=O)cn1` [MSSM-RJD-MM-004], the EC50 in experiment [1] is greater than 100 µM; in experiment [2], greater than 10 µM; in experiment [3], greater than 20 µM.

With `CCn1cc(-c2c(C(F)(F)F)oc3c(OC)c(OC)ccc3c2=O)cn1` [MSSM-RJD-MM-005], the EC50 in experiment [1] was greater than 100 µM; in experiment [2], greater than 10 µM; in experiment [3], greater than 20 µM.

As for `O=c1c(-c2cnn(Cc3ccc(Cl)cc3)c2)c(C(F)(F)F)oc2c(O)c(O)ccc12` [MSSM-RJD-MM-006, 3-(1-(4-chlorobenzyl)-1H-pyrazol-4-yl)-7,8-dihydroxy-2-(trifluoromethyl)-4H-chromen-4-one], the figures for the EC50 in experiment [1], in experiment [2] and in experiment [3] were 7.6 µM, greater than 10 µM and greater than 20 µM, respectively.

For `CCCCn1cc(-c2c(C(F)(F)F)oc3c(O)c(O)ccc3c2=O)cn1` [MSSM-RJD-MM-007, 3-(1-butyl-1H-pyrazol-4-yl)-7,8-dihydroxy-2-(trifluoromethyl)-4H-chromen-4-one], the concentration for a half-maximal effect (EC50) in experiment [1] is 3.8 µM; in experiment [2] it was greater than 10 µM; in experiment [3] it was greater than 20 µM.

Regarding `CCCn1cc(-c2c(C(F)(F)F)oc3c(O)c(O)ccc3c2=O)cn1` [MSSM-RJD-MM-008, 7,8-dihydroxy-3-(1-propyl-1H-pyrazol-4-yl)-2-(trifluoromethyl)-4H-chromen-4-one], the concentration for a half-maximal effect (EC50) in experiment [1] was 4 µM; in experiment [2], greater than 10 µM; in experiment [3], greater than 20 µM.

In the case of `CCn1cc(-c2c(C(F)(F)F)oc3c(O)c(O)ccc3c2=O)cn1` [MSSM-RJD-MM-009, 3-(1-ethyl-1H-pyrazol-4-yl)-7,8-dihydroxy-2-(trifluoromethyl)-4H-chromen-4-one], the EC50 is 6 µM in experiment [1], greater than 10 µM in experiment [2] and greater than 20 µM in experiment [3].

For the compound `COc1ccc2c(=O)c(-c3cnn(Cc4ccc(F)cc4)c3)c(C(F)(F)F)oc2c1OC` [MSSM-RJD-MM-010, 3-(1-(4-fluorobenzyl)-1H-pyrazol-4-yl)-7,8-dimethoxy-2-(trifluoromethyl)-4H-chromen-4-one], the EC50 in experiment [1] was greater than 100 µM; in experiment [2], greater than 10 µM; in experiment [3], greater than 20 µM.

Take `COc1ccc2c(=O)c(-c3cnn(Cc4ccc(C(F)(F)F)cc4)c3)c(C(F)(F)F)oc2c1OC` [MSSM-RJD-MM-011, 7,8-dimethoxy-2-(trifluoromethyl)-3-(1-(4-(trifluoromethyl)benzyl)-1H-pyrazol-4-yl)-4H-chromen-4-one]: the EC50 in experiment [1] is greater than 100 µM; in experiment [2], greater than 10 µM; in experiment [3] it was greater than 20 µM.

`COc1ccc2c(=O)c(-c3cnn(Cc4ccccc4Cl)c3)c(C(F)(F)F)oc2c1OC` [MSSM-RJD-MM-012, 3-(1-(2-chlorobenzyl)-1H-pyrazol-4-yl)-7,8-dimethoxy-2-(trifluoromethyl)-4H-chromen-4-one]: the EC50 in experiment [1] was greater than 100 µM; in experiment [2], greater than 10 µM; in experiment [3], greater than 20 µM.

Turning to `COc1ccc2c(=O)c(-c3cnn(Cc4cccc(Cl)c4)c3)c(C(F)(F)F)oc2c1OC` [MSSM-RJD-MM-017, 3-(1-(3-chlorobenzyl)-1H-pyrazol-4-yl)-7,8-dimethoxy-2-(trifluoromethyl)-4H-chromen-4-one], the EC50 in experiment [1] is 82 µM; in experiment [2], greater than 10 µM.

`COc1cccc(Cn2cc(-c3c(C(F)(F)F)oc4c(OC)c(OC)ccc4c3=O)cn2)c1` [MSSM-RJD-MM-018, 7,8-dimethoxy-3-(1-(3-methoxybenzyl)-1H-pyrazol-4-yl)-2-(trifluoromethyl)-4H-chromen-4-one]: the EC50 was greater than 100 µM in experiment [1] and greater than 10 µM in experiment [2].

Consider `COc1ccc2c(=O)c(-c3cnn(Cc4cccc(C)c4)c3)c(C(F)(F)F)oc2c1OC` [MSSM-RJD-MM-019], for which the EC50 in experiment [1] was 92 µM; in experiment [2] it was greater than 10 µM.
